Assay results published in US8163776B2, “Method of immunomodulation using thione-forming disulfides” (Grassetti family Trust, priority 2001, dated 2012).
Values joined by “and” are separate entries in the source; they are usually repeats but may differ in a detail not shown here. Equal entries are not always repeated.

Key:
[1] = test system: NK cells; test: NK cell activity, standard 51Cr release assay with YAC-1 target cells; type: in vivo, BALB/c mice; parameters: NK activity (%): concentration or dose not given beside the values; settings: for NK activity (%): % specific lysis, E:T 200:1
Description: NK cell activity was determined by using a standard NK assay (Coligan, J. E. et al. 1993. “In Vitro Assays for mouse lymphocyte function” Chapter 3, Current Protocol in Imnunology, John Wiley & Sons, New York) using YAC-1 cells (ATCC #TIB-160) as target cells. These cells were washed twice with HBSS, counted, and suspended at a concentration of 5×10^6 cells/ml. About 5×10^6 cells were labeled with 100 μCi of ^51Cr. Cells were incubated 90 minutes at 37° C. in a 5% CO2 humidified incubator and then washed three times with RPMI, counted, and suspended at a concentration of 1×10^5 cells/ml in complete RPMI. About 100 μl of target cells (˜1×10^4 cells) was put into each well of a round-bottom 96 wells plate.
Four dilutions of splenocytes were prepared: 2×10^7 cells/ml, 1×10^7 cells/ml, 0.5×10^7 cells/ml, and 0.25×10^7 cells/ml. A volume of 100 μl of each splenocyte dilution was plated in triplicate with the target cells for a final effector:target (E:T) ratio of 200:1, 100:1, 50:1 and 25:1.
A maximal control release was prepared in triplicate on each plate by adding 100 μl of 5% Triton X-100 solution instead of effector cells. Spontaneous release was prepared in triplicate on each plate by adding 100 μl of complete RPMI instead of effector cells. Plates were centrifuged and incubated 4 hours at 37° C. in a 5% CO2 humidified incubator. After incubation, the supernatants were collected and the ^51Cr release was determined using a gamma counter. The average cpm count was calculated for each triplicate. The average cpm count for the total and spontaneous release was also calculated. The percentage (%) of specific lysis is calculated using the following formula:
Where, ER=Experimental release of ^51Cr • TR=Total release of ^51Cr • SR=Spontaneous release of ^51Cr
The % of specific lysis for every ratio (200:1, 100:1, 50:1 and 25:1) was calculated. A graphic representation of the results is done: specific lysis % versus the ratio to verify the linearity. For BALB/c mice strains which usually show low NK activity, specific lysis corresponding to an E:T ratio of 200:1 is used to represent the data for each animal. The mean NK activity is then calculated for each control and treated group. Student's T test was performed between the control group and the treated group. The p value was calculated for statistical significance.
In this assay, the effect on the NK activity of feeding Balb/c mice with compound CPDS for short term (6 days) and longer term (30 days) was evaluated. The NK cells are a lymphocyte subset with non specific cytotoxicity activity. Results are presented as the % of specific lysis of target cells for a ratio of 200:1 (Table 8 and FIG. 2). Balb/c mice normally show low NK activity which justifies the choice of the 200:1 ratio for the comparison between groups.

[2] = test system: lymphocytes; test: Mitogenic proliferation of splenocytes (3H-thymidine incorporation); type: in vivo, BALB/c mice
Description: Splenocytes were diluted to a concentration of 1×10^6 cells/ml in complete RPMI media. Aliquots of 100 μl were transferred into a 96 well flat bottom plate. Mitogen stock solutions were prepared at a concentration of 1 mg/ml in D-PBS and frozen at −20° C. Working solution were prepared freshly in complete RPMI media at the following concentration (10×): 500 μg/ml PHA, 50 μg/ml concanavalin A (con A), and 50 μg/ml LPS. Aliquots of 100 μl of each mitogens were transferred in triplicate in the corresponding wells. Final concentration (1×) in each well was 50 μg/ml PHA, 5 μg/ml con A, and 5 μg/ml LPS. For negative control, 100 μl of complete RPMI media was added in triplicate, instead of the mitogens. Cells were incubated for a total of 72 hours in 37° C., 5% CO2, humidified incubator. Twenty hours before the end of the incubation, 1 μCi per well of ^3H-thymidine was added to each well. Cells were harvested using a Harvester® 96 from Tomtec. Filters were transferred into scintillation vials. Scintillation liquid, 4 ml was added to each vial. Radioactivity was counted using Beckman LS-6500 Beta counter. The results were expressed in CPM. The mean and standard deviation of triplicate samples are calculated. Results are expressed as stimulation index (SI) as follows:
[formula] • where experimental value=with mitogens (PHA, ConA and LPS) and control value=with RPMI. For each mitogen, results were compared and Student's T test was performed between the control group and the treated group. The p value was calculated for statistical significance.
The lymphoproliferative response is a widely studied function of T and B lymphocytes. Three different mitogens with different specificity for different lymphocyte subsets were used. PHA and ConA are standard mitogens that stimulate mice T cells and LPS is a mitogen which stimulates B cells. Results are expressed in proliferation capacity (Table 10 and FIGS. 5 and 6). […] This potential may present some therapeutic application against some immune dysfunctions where the lymphoproliferative response is impaired (e.g., viral infections).

[3] = Group 6, 6 days on CPDS diet, Mean ± S.D.
[4] = 30 days on CPDS diet vs normal diet
[5] = 30 days on CPDS diet, Mean ± S.D.

`O=C(O)c1ccc(SSc2ccc(C(=O)O)cn2)nc1` [CPDS, 6,6′-dithiodinicotinic acid] was tested, and the “NK activity, effect of CPDS diet” value ([1]; 6 days, vs control) was “No significant effect”, the “NK activity, variation” value ([1]; Group 2, 30 days on CPDS diet vs Group 1) was 24.7% and the “NK activity (%)” value ([1]; Group 2, 30 days on CPDS diet, Mean ± S.D.) was 6.8 ± 1.4%. For the same compound, the “NK activity (%)” value ([1]; Group 2, 30 days on CPDS diet, individual mice) was 8.7% and 7.9% and 5.0% and 6.9% and 6.3% and 5.6% (2×) and 8.2%, the “NK activity, variation” value ([1]; Group 6, 6 days on CPDS diet vs group 5) was −13.1% and the “NK activity (%)” value [1, 3] was 7.9 ± 2.0%. For the same compound, the “NK activity (%)” value ([1]; Group 6, 6 days on CPDS diet, individual mice) was 10.2% and 7.0% and 6.6%, the “Mitogenic Proliferation (SI), LPS, effect of CPDS diet” value ([2]; 6 days, n=3) was “No effect” and the “Mitogenic Proliferation (SI), PHA, effect of CPDS diet” value ([2]; 6 days, n=3) was “No effect”. For the same compound, the “Mitogenic Proliferation, LPS” value ([2]; 30 days on CPDS diet (samples G2-1 to G2-8), individual mice, 5 μg/ml LPS) was 3799.3 and 1426.0 and 4760.0 and 4304.7 and 842.0 and 1407.3 and 2438.0 and 2039.3, the “Mitogenic Proliferation, CON A” value ([2]; 30 days on CPDS diet (samples G2-1 to G2-8), individual mice, 5 μg/ml con A) was 6928.7 and 2621.3 and 11240.7 and 8041.3 and 915.3 and 1023.3 and 3308.7 and 4993.3 and the “Mitogenic Proliferation, PHA” value ([2]; 30 days on CPDS diet (samples G2-1 to G2-8), individual mice, 50 μg/ml PHA) was 3565.3 and 1168.0 and 2175.3 and 2300.0 and 603.3 and 717.3 and 1652.6 and 886.0. The “Mitogenic Proliferation, No stimulation” value ([2]; 30 days on CPDS diet (samples G2-1 to G2-8), individual mice, no unit in table, method: CPM) was 78.0 and 69.3 and 66.7 and 82.0 and 57.3 and 72.7 and 72.0 and 58.7, the “Mitogenic Proliferation, CON A, Variation(%)” value [2, 4] was 210.2% and the “Mitogenic Proliferation, LPS, Variation(%)” value [2, 4] was 82.0%. The “Mitogenic Proliferation, No stimulation, Variation(%)” value [2, 4] was 0.2%, the “Mitogenic Proliferation, PHA, Variation(%)” value [2, 4] was 144.4% and the “Mitogenic Proliferation, CON A” value [2, 5] was 4984.1 ± 3641. The “Mitogenic Proliferation, LPS” value [2, 5] was 2627.1 ± 1475, the “Mitogenic Proliferation, No stimulation” value [2, 5] was 69.6 ± 8 and the “Mitogenic Proliferation, PHA” value [2, 5] was 1633.4 ± 1010. The “Mitogenic Proliferation (SI), LPS, effect of CPDS diet” value ([2]; 30 days, n=8, arrow image = increase) was “tendency to increase”, the “Mitogenic Proliferation, CON A” value [2, 3] was 4441.8 ± 1733 and the “Mitogenic Proliferation, LPS” value [2, 3] was 937.9 ± 232. For the same compound, the “Mitogenic Proliferation, No stimulation” value [2, 3] was 50.5 ± 23, the “Mitogenic Proliferation, PHA” value [2, 3] was 205.3 ± 74 and the “Mitogenic Proliferation, LPS” value ([2]; Group 6, 6 days on CPDS diet, individual mice, 5 μg/ml LPS, no unit in table, method: CPM) was 1052.0 and 670.0 and 1091.3. The “Mitogenic Proliferation, CON A” value ([2]; Group 6, 6 days on CPDS diet, individual mice, 5 μg/ml con A, no unit in table, method: CPM) was 4876.7 and 2532.0 and 5916.7, the “Mitogenic Proliferation, PHA” value ([2]; Group 6, 6 days on CPDS diet, individual mice, 50 μg/ml PHA, no unit in table, method: CPM) was 237.3 and 120.0 and 258.7 and the “Mitogenic Proliferation, No stimulation” value ([2]; Group 6, 6 days on CPDS diet, individual mice, no unit in table, method: CPM) was 78.0 and 34.7 and 38.7. For the same compound, the “Proliferation with all three mitogens (PHA, ConA, LPS), in words” value ([2]; after 6 days of treatment with CPDS) was “tendency towards an increase”.
